Measurements published in US8293705B2, “HCV protease inhibitors and uses thereof” (Avila Therapeutics, Inc., priority 2007, dated 2012).

Columns and labels:
[1] = biological target: T1, HCV NS3/4A 1b protease wild type (Hepatitis C virus genotype 1b, UniProt Q9WMX2); assay: HCV protease FRET assay (IC50_APP), Example 16; type: biochemical
T1 construct: 10× stocks of NS3/4A protease enzyme from Bioenza (Mountain View, Calif.); purchased Bioenza (Mountain View, Calif.)

[2] = biological target: T2, HCV NS3/4A 1b protease A156T (Hepatitis C virus genotype 1b, UniProt Q9WMX2, A1182T); assay: HCV protease FRET assay (IC50_APP), Example 16; type: biochemical
T2 construct: 10× stocks of NS3/4A protease enzyme from Bioenza (Mountain View, Calif.); purchased Bioenza (Mountain View, Calif.)

[3] = biological target: T3, HCV NS3/4A 1b protease D168A (Hepatitis C virus genotype 1b, UniProt Q9WMX2, D1194A); assay: HCV protease FRET assay (IC50_APP), Example 16; type: biochemical
T3 construct: 10× stocks of NS3/4A protease enzyme from Bioenza (Mountain View, Calif.); purchased Bioenza (Mountain View, Calif.)

[4] = biological target: T1, HCV NS3/4A 1b protease wild type; assay: HCV protease FRET assay (IC50), Example 15; type: biochemical
Protocol: (§1) The following protocol was used to generate IC50 values as depicted for compound 239 in Table 4, above. The protocol is a modified FRET-based assay (v—02) from In Vitro Resistance Studies of HCV Serine Protease Inhibitors, 2004, JBC, vol. 279, No. 17, pp 17508-17514.
(§2) 10× stocks of NS3/4A protease enzyme from Bioenza (Mountain View, Calif.) and 1.13× 5-FAM/QXL™520 FRET peptide substrate from Anaspec (San Jose, Calif.) were prepared in 50 mM HEPES, pH 7.8, 100 mM NaCl, 5 mM DTT and 20% glycerol. 5 μL of each enzyme were pre-incubated in a Corning (#3573) 384-well, black, non-treated microtiter plate (Corning, N.Y.) for 30 min at 25° C. with a 0.5 μL volume of 50% DMSO and serially diluted compounds prepared in 50% DMSO. Protease reactions were started with the addition of 45 μL of the FRET substrate and monitored for 120 minutes at λex487/λem514 through Quad^4 monochromoters in a Synergy^4 plate reader from BioTek (Winooski, Vt.). At the conclusion of each assay, progress curves from each well were examined for linear reaction kinetics and fit statistics (R^2, absolute sum of squares). Initial velocity (0 minutes to 30+ minutes) from each reaction was determined from the slope of a plot of relative fluorescence units vs time (minutes) and then plotted against inhibitor concentration to estimate IC50 from log [Inhibitor] vs Response, Variable Slope model in GraphPad Prism from GraphPad Software (San Diego, Calif.).
(§3) The compound numbers correspond to the compound numbers in Table 3. […] ;

[5] = biological target: T2, HCV NS3/4A 1b protease A156T; assay: HCV protease FRET assay (IC50), Example 15; type: biochemical
Protocol: as §1, §2, §3

[6] = biological target: T3, HCV NS3/4A 1b protease D168A; assay: HCV protease FRET assay (IC50), Example 15; type: biochemical
Protocol: as §1, §2, §3

HCV NS3/4A wild type = biological target: T4, HCV NS3/4A wild type (Hepatitis C virus genotype 1b, UniProt Q9WMX2); assay: Mass spectrometric analysis of covalent modification (MALDI-TOF); type: binding; conditions: 10× excess of test compound to protein
T4 construct: HCV NS3/4A wild type (wt) was incubated for 1 hr at a 10× fold access of test compound to protein; purchased Bioenza, Calif
Method in brief: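 HCV NS3/4A protease (100 pmol wild type; C159S mutant as comparison) incubated with 10-fold molar excess of compound for 1 and 3 h. Samples acidified in 0.1% TFA, C4 ZipTip-desalted, analysed by MALDI-TOF intact-mass measurement in linear mode, sinapinic acid matrix.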

HCV NS3•4A protease WT = HCV NS3•4A protease WT (Hepatitis C virus genotype 1b, UniProt Q9WMX2); assay: cell-based
[7] = tested on: HCV RNA replicon in cell line ET (luc-ubi-neo/ET), human Huh7 hepatoma; assay: HCV RNA replicon assay, Example 14 Method A; type: cell-based; conditions: Hepatitis C virus, Huh-7, assay of Example 14, 72 hr; for IC50: read-out: Inhibition, Replicon (IC50); for IC90: read-out: Inhibition, Replicon, IC90 value
Protocol: The compounds were assayed to evaluate the antiviral activity and cytotoxicity of compounds in vitro using HCV RNA replicons. This assay used the cell line ET (luc-ubi-neo/ET), which is a human Huh7 hepatoma cell line that contains an HCV RNA replicon with a stable luciferase (Luc) reporter and three cell culture-adaptive mutations. […]
The ET cell line was grown in Dulbecco's modified essential media (DMEM), 10% fetal bovine serum (FBS), 1% penicillin-streptomycin (pen-strep), 1% glutamine, 250 μg/mL G418 in a 5% CO2 incubator at 37° C. All cell culture reagents were obtained from Mediatech (Manassas, Va.). Cells were trypsinized (1% trypsin:EDTA) and plated out at 5×10^3 cells/well in white 96-well assay plates (Costar) dedicated to cell number (cytotoxicity) or antiviral activity assessments. Drugs were added at six 3-fold concentrations each and the assay was run in DMEM, 5% FBS, 1% pen-strep, 1% glutamine. Human interferon alpha-2b (PBL Biolabs, New Brunswick, N.J.) was included in each run as a positive control compound. Cells were processed 72 hr post drug addition when the cells are still subconfluent. Antiviral activity was measured by analyzing replicon-derived luciferase activity using the Steady-Glo Luciferase Assay System (Promega, Madison, Wis.) according to manufacturer's instruction. The number of cells in each well was determined by CytoTox-1 reagent (Promega). Compound profile was derived by calculating applicable EC50 (effective concentration inhibiting virus replication by 50%), EC90 (effective concentration inhibiting virus replication by 90%), IC50 (concentration decreasing cell viability by 50%) and SI50 (selective index: […]) values.

[8] = biological target: T5, HCV NS3/4A 1b protease R155K (Hepatitis C virus genotype 1b, UniProt Q9WMX2, R1181K); assay: HCV protease FRET assay (IC50_APP), Example 16; type: biochemical; conditions: reaction started immediately after enzyme addition, read-out: Inhibition (apparent IC50, IC50_APP), HCV R155K
T5 construct: 10× stocks of NS3/4A protease enzyme from Bioenza (Mountain View, Calif.); purchased Bioenza (Mountain View, Calif.)

[9] = biological target: T6, HCV NS3/4A mutant R155K protease (Hepatitis C virus genotype 1b, UniProt Q9WMX2, R1181K); assay: Mass spectrometric analysis of covalent modification (MALDI-TOF); type: binding; conditions: 3 hours, 10× excess of compound
T6 construct: mass spectroscopic analysis of HCV NS3/4A mutant R155K protease in the presence of test compound I-11
Protocol: (§4) As depicted in FIGS. 4, 5, 6, and 7, mass spectrometric analysis of HCV mutants in the presence of compound I-11 was performed. […] 2 ul aliquots of the samples were diluted with 10 ul of 0.1% TFA prior to micro C4 ZipTipping directly onto the MALDI target using Sinapinic acid as the desorption matrix (10 mg/ml in 0.1% TFA:Acetonitrile 50:50). For intact protein mass measurement the instrument was set in linear mode using a pulsed extraction setting of 24,500 and apomyoglobin as the standard to calibrate the instrument.

[10] = biological target: T7, HCV NS3/4A mutant A156T protease (Hepatitis C virus genotype 1b, UniProt Q9WMX2, A1182T); assay: as above; type: binding; conditions: 3 hours, 10× excess of compound
T7 construct: mass spectroscopic analysis of HCV NS3/4A mutant A156T protease in the presence of test compound I-11
Protocol: as §4

[11] = tested on: HCV RNA replicon in cell line ET (luc-ubi-neo/ET), human Huh7 hepatoma; assay: Replicon luciferase assay, Example 26; type: cell-based; conditions: Hepatitis C virus, Huh-7, assay of Example 26, 72 hr
Protocol: The compounds were assayed to evaluate the antiviral activity and cytotoxicity of compounds using replicon-derived luciferase activity. This assay used the cell line ET (luc-ubi-neo/ET), which is a human Huh7 hepatoma cell line that contains an HCV RNA replicon with a stable luciferase (Luc) reporter and cell culture-adaptive mutations. The ET cell line was grown in a 5% CO2 incubator at 37° C. in Dulbecco's modified essential media (DMEM) supplemented with 2 mM L-glutamine, nonessential amino acids, 100 U of penicillin/ml, 100 μg of streptomycin/mL, and 10% fetal bovine serum. G418 (Geneticin; Invitrogen) was added at a final concentration of 400 ug//mL.
All cell culture reagents were obtained from Invitrogen (Carlsbad). Cells were trypsinized (1% trypsin:EDTA) and plated out at 5×10^3 cells/well in white 96-well assay plates (Costar) dedicated to cell number (cytotoxicity) or antiviral activity assessments. Test compounds were added at six 3-fold concentrations each and the assay was run in DMEM, 5% FBS, 1% pen-strep, 1% glutamine, 1% non essential amino acid. Human interferon alpha-2b (PBL Biolabs, New Brunswick, N.J.) was included in each run as a positive control compound. Cells were processed 72 hr post test compound addition when the cells were still subconfluent. Antiviral activity was measured by analyzing replicon-derived luciferase activity using the Steady-Glo Luciferase Assay System (Promega, Madison, Wis.) according to manufacturer's instruction. The number of cells in each well was determined by Cell Titer Blue Assay (Promega). Compound profile was derived by calculating applicable EC50 (effective concentration inhibiting virus replication by 50%), EC90 (effective concentration inhibiting virus replication by 90%), IC50 (concentration decreasing cell viability by 50%) and SI50 (selective index: […]) values.

[12] = biological target: T8, NS3 protease self-cleavage in Huh-7-Luc-Neo-ET replicon cells (Hepatitis C virus genotype 1b, UniProt Q9WMX2, E1202G/T1280I); assay: Inhibition of protease self cleavage in replicon cells (washout); type: cell-based; conditions: 16 hours continuous exposure
T8 construct: blotted with polyclonal anti NS3 antibody (Bioenza, Calif.)
Protocol: Huh-7-Luc-Neo-ET cells were plated in Replicon Assay Medium (RPMI supplemented with 5% FBS, 1× non-essential amino acids and pen/strep) at a density of 1×10^5 cells/well in 12 well plates. Eight hours later the media was removed and replaced with 1 ml media containing test compound (5 wells per compound) and 0.02% DMSO and the cells were returned to the incubator overnight. Sixteen hours later 1 well from each compound and 1 untreated well were washed with PBS, then lysed and scraped into 30 ul of Cell Extraction Buffer (Biosource, Camarillo, Calif.) plus Complete Protease Inhibitor (Roche, Indianapolis, Ind.). The remaining wells were rinsed 2× with PBS then fed with Replicon Media and returned to the incubator. […]
Cell lysates were separated by SDS-Page (4-20%) and transferred to Immobilon-P PVDF membrane (Millipore Corporation, MA) and blotted with polyclonal anti NS3 antibody (Bioenza, Calif.). Blots were scanned on an Odyssey infrared scanner from Licor and the FL band and cleavage products were quantified separately using the Licor software provided with the scanner. The cleavage product was calculated as a percentage of the total NS3 in each sample and then normalized to the DMSO control so that the DMSO control reflects 100% activity.

[13] = Inhibition (IC50), HCV D168A, FRET, 30 min pre-incubation at 25° C.

Structure (SMILES) | IC50 [1] [nM] | IC50 [2] [nM] | IC50 [3] [nM] | IC50 [4] [nM] | IC50 ([5]; Comparative IC50 Values, A156T, biochemical assay, applicant's compound) [nM] | IC50 ([5]; Inhibition (IC50), HCV A156T, FRET, 30 min pre-incubation at 25° C.) [nM] | IC50 ([6]; Comparative IC50 Values, D168A, biochemical assay, applicant's compound) [nM] | IC50 [6, 13] [nM] | Covalent modification of HCV NS3/4A wild type (HCV NS3/4A wild type; MALDI-TOF) | Mass increase of new protein species vs protein with no compound (HCV NS3/4A wild type; 1 hr) | IC50 (HCV NS3•4A protease WT) [nM] | IC50 [7] [nM] | IC90 [7] [nM] | IC50 [8] [nM] | Conversion of HCV (R155K) mutant to compound adduct [9] | Conversion of HCV (A156T) mutant to compound adduct [10] | EC50 ([11]; read-out: Inhibition, Replicon, EC50 value) [nM] | EC90 ([11]; read-out: Inhibition, Replicon, EC90 value) [nM] | NS3 internal self-cleavage products after treatment of replicon cells [12]
C=CC(=O)NC[C@H](NC(=O)OC(C)(C)C)C(=O)N1C[C@H](OC(=O)N2Cc3cccc(F)c3C2)C[C@H]1C(=O)N[C@]1(C(=O)NS(=O)(=O)C2CC2)C[C@H]1C=C [Compound I-1, (3R,5S)-1-((S)-3-acrylamido-2-(tert-butoxycarbonylamino)propanoyl)-5-((1R,2S)-1-(cyclopropylsulfonylcarbamoyl)-2-vinylcyclopropylcarbamoyl)pyrrolidin-3-yl 4-fluoroisoindoline-2-carboxylate] | < 10 | 10 to 100 | 100 to 1000 | < 10 | 3 | < 10 | 8 | < 10 | reacted significantly | approximately 751 Da | 0.66 | 10 to 100 | 10 to 100 |  |  |  |  |  | 
C=CC(=O)N(C)C[C@H](NC(=O)OC(C)(C)C)C(=O)N1C[C@H](OC(=O)N2Cc3cccc(F)c3C2)C[C@H]1C(=O)N[C@]1(C(=O)NS(=O)(=O)C2CC2)C[C@H]1C=C [Compound I-11, (3R,5S)-1-((S)-2-(tert-butoxycarbonylamino)-3-(N-methylacrylamido)propanoyl)-5-((1R,2S)-1-(cyclopropylsulfonylcarbamoyl)-2-vinylcyclopropylcarbamoyl)pyrrolidin-3-yl 4-fluoroisoindoline-2-carboxylate] | < 10 | < 10 | 10 to 100 | < 10 |  |  |  | 10 to 100 |  |  |  | < 10 | 10 to 100 | 10 to 100 | good conversion | complete conversion |  |  | 
CC(C)(C)OC(=O)N[C@H]1CN(C(=O)CCl)CCC/C=C\[C@@H]2C[C@@]2(C(=O)NS(=O)(=O)C2CC2)NC(=O)[C@@H]2CC(OC(=O)N3Cc4cccc(F)c4C3)CN2C1=O (some centres unmarked) [Compound I-47] | < 10 |  | 10 to 100 |  |  |  |  |  |  |  |  |  |  | 10 to 100 |  |  | 10 to 100 | 100 to 1000 | inhibited
